Activity calls are given as the source filed them.
How the values were obtained:
[1] = biological target: Luciferin 4-monooxygenase (Photinus pyralis, UniProt P08659); experiment: Counter Screen for Luciferase-based Assay Positives. [Related pubchem assays: 620, 618, 411 ]
[2] = biological target: Protein-tyrosine kinase 2-beta (Homo sapiens, UniProt Q14289);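 further: potency of inhibitors of PYK2 kinase phosphorylation of poly-GT substrate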
HT-1080 = experiment: HT1080 cell viability loss – fluorescence readout (AID 620); format: functional, cell-based; details: Homo sapiens
[3] = Luminescence-based cell-based high throughput dose response assay to identify activators of the DAF-12 from the parasite S. stercoralis (ssDAF-12).; format: functional
[4] = biological target: T1, Oxysterols receptor LXR-beta (Homo sapiens, UniProt P55055); experiment: LXR agonists, Gal4 luciferase reporter, dose response, counter-screen for ssDAF-12 agonist project, cell-based, luminescence, HEK293, S. stercoralis campaign (AID 720737); format: functional; details: read-out: IC50 (the source's name)
T1 sequence (P55055 whole entry): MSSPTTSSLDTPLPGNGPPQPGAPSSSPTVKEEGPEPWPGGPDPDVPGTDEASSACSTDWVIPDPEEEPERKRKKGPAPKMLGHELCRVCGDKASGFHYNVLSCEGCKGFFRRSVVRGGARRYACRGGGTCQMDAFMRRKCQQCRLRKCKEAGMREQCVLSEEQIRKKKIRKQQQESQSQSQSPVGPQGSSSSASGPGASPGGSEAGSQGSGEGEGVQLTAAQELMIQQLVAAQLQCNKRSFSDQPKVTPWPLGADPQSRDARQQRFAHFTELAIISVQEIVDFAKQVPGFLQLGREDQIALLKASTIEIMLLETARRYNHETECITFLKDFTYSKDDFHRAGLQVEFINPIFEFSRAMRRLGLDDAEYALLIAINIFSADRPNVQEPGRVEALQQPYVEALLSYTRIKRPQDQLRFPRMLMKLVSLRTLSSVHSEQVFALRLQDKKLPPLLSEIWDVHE

[5] = A Cell Based Secondary Assay To Explore Cytotoxicity of Compounds that Sensitize Mycobacterium Tuberculosis to Beta-Lactam Antibiotics.; format: functional
[6] = HPDE-C7 pancreatic duct cell viability loss – fluorescence, HTS (AID 430); format: functional, cell-based; details: Homo sapiens
[7] = viability loss of HPDE-C7K cells – cell-based, fluorescence, HTS, primary screen (AID 431); format: functional; details: Homo sapiens
[8] = viability of PTEN-deleted HCT116 cells – cell-based, HCT116 PTEN knockout, dose response (AID 1047); format: functional;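 further: HCT116 colon tumor cells with PTEN knocked out; cells exposed to compound for 60 hours before readout; potency for loss of cell viability measured by luminescence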
[9] = viability of HCT116 lacking mutant beta-catenin – cell-based, human colon tumor, dose response (AID 1045); format: functional;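 further: HCT116 colon tumor cells with beta catenin knocked out; cells exposed to compound for 60 hours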
H9c2 = experiment: cells; format: functional, cell-based; details: Rattus norvegicus, H9c2, Myocardium;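 further: confirmatory concentration-response retest of ultra-high-throughput screening hits for modulation of myocardial damage; cell death induced by hydrogen peroxide oxidative stress; compound pretreatment for 60 min then peroxide exposure for 2 h; potency is for protecting the cells against peroxide damage rather than for killing them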
Bcl-2-like protein 10 = biological target: T2, Bcl-2-like protein 10 (Homo sapiens, UniProt Q9HD36); experiment: Bcl-B/TR3 peptide binding disruption – biochemical, fluorescence polarization, FITC-TR3 peptide, selectivity assay for Bfl-1 inhibitor project, primary screen (AID 748);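 further: fluorescence polarization from a fluorescein-labelled TR3 peptide binding purified Bcl-B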
T2 sequence (Q9HD36 whole entry): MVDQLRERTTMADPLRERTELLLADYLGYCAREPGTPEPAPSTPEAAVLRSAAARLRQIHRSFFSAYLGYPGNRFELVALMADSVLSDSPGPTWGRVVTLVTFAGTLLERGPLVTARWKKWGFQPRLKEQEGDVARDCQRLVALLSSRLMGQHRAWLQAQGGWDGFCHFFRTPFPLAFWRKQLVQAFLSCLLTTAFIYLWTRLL

Estrogen receptor beta [10] = biological target: T3, Estrogen receptor beta (Homo sapiens, UniProt Q92731);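 further: recombinant ER-beta bound to coactivator SRC1 peptide in presence of estradiol agonist; inhibitors block coactivator peptide binding and lower the FRET signal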
Estrogen receptor beta [11] = biological target: T3, Estrogen receptor beta; experiment: blockers of SRC-3 recruitment to ERβ – biochemical, ELISA, streptavidin-HRP readout, orthogonal assay, confirmation (AID 1060)
[12] = biological target: T4, Carboxy-terminal domain RNA polymerase II polypeptide A small phosphatase 1 (Homo sapiens, UniProt Q9GZU7); experiment: CTDSP1 inhibitors, concentration-response, biochemical, absorbance readout, ultra-high-throughput screen actives (AID 540297); format: functional
T4 sequence (Q9GZU7 whole entry): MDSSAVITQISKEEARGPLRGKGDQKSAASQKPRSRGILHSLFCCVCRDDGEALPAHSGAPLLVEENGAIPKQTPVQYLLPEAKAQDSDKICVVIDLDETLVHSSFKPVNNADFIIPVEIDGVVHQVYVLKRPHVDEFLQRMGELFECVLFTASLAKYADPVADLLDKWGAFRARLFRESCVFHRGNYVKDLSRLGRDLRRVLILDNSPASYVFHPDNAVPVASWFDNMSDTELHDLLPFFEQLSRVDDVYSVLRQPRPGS

[13] = test system: Streptococcus sp. 'group A'; experiment: Streptococcus pyogenes SK(-)GAS viability under kanamycin – luminescence, BacTiterGlo, confirmation, counter-screen for streptokinase expression inhibitor project, dose response (AID 1900); format: functional, organism-based
Streptococcus = experiment: GAS UMAA2166 growth inhibition – luminescence, BacTiterGlo, counter-screen for streptokinase expression inhibitor project, dose response (AID 1915); format: functional, organism-based;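 further: potency for reduction of bacterial viability or growth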
[14] = biological target: Lysosomal acid glucosylceramidase (Homo sapiens, UniProt P04062); experiment: Dose response cell-based high throughput screening assay to identify enhancers of beta-glucosidase activity. [Related pubchem assays: 784 ]; format: functional
[15] = biological target: Peroxisome proliferator-activated receptor gamma/Nuclear receptor coactivator 2 (Homo sapiens, UniProt P37231); format: functional;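 further: agonist potency for raising coactivator recruitment to the receptor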
[16] = biological target: Peroxisome proliferator-activated receptor gamma/Nuclear receptor coactivator 1 (Homo sapiens, UniProt P37231); format: functional;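 further: agonist potency as compounds enhance coactivator SRC-1 recruitment to PPARgamma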
[17] = biological target: Peroxisome proliferator-activated receptor gamma/Nuclear receptor coactivator 3 (Homo sapiens, UniProt P37231); format: functional;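 further: agonist potency for raising coactivator recruitment to the receptor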
[18] = biological target: Transitional endoplasmic reticulum ATPase (Homo sapiens, UniProt P55072, C522A); experiment: Luminescence counterscreen assay for p97 inhibitors: dose response biochemical high throughput screening assay to identify inhibitors of the C522A mutant p97 ATPase: synthesized compounds. [Related pubchem assays: 1481, 1517, 1551 ]
[19] = biological target: Transitional endoplasmic reticulum ATPase (Homo sapiens, UniProt P55072); experiment: Luminescence dose response biochemical high throughput screening assay for inhibitors of the p97 ATPase: synthesized compounds. [Related pubchem assays: 1481, 1517 ]
Chain of Transitional endoplasmic reticulum ATPase (Homo sapiens, UniProt P55072) (P55072 whole entry): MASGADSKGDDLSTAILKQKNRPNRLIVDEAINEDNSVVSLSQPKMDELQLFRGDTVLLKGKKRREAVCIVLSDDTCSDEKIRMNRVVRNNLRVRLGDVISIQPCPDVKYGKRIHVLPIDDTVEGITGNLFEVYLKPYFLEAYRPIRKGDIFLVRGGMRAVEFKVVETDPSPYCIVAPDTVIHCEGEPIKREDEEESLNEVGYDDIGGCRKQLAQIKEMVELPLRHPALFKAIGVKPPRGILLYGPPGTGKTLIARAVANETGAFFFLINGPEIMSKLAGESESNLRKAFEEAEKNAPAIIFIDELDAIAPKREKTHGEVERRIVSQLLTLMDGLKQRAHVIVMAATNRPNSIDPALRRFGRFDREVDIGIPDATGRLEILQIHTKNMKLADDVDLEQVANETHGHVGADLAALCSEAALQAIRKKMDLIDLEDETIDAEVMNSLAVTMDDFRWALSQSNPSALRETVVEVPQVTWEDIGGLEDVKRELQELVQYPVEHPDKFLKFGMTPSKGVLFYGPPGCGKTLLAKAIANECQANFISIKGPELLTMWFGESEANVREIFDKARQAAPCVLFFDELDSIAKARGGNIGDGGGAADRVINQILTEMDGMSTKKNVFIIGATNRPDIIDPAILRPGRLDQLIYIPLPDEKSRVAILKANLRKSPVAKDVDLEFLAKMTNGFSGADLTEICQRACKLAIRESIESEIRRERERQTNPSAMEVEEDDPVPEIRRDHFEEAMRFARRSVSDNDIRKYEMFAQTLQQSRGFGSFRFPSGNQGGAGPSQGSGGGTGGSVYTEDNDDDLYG

T3 sequence (Q92731 whole entry): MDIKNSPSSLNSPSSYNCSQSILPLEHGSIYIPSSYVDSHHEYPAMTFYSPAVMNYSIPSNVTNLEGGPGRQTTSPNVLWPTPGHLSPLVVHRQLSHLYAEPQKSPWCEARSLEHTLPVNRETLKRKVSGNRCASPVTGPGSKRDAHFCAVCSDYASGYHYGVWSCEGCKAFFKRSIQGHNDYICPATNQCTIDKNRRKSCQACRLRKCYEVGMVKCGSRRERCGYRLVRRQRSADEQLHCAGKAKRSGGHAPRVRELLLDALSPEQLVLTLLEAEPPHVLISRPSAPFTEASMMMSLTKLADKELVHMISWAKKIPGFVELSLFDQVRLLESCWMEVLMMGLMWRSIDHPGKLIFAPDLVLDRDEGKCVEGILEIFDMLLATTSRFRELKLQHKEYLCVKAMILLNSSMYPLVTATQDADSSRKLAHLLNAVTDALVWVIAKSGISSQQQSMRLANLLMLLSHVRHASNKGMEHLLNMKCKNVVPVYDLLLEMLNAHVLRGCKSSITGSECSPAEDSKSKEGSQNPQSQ
Chain of Transitional endoplasmic reticulum ATPase (Homo sapiens, UniProt P55072, C522A) (P55072 2-806 C522A limits assumed): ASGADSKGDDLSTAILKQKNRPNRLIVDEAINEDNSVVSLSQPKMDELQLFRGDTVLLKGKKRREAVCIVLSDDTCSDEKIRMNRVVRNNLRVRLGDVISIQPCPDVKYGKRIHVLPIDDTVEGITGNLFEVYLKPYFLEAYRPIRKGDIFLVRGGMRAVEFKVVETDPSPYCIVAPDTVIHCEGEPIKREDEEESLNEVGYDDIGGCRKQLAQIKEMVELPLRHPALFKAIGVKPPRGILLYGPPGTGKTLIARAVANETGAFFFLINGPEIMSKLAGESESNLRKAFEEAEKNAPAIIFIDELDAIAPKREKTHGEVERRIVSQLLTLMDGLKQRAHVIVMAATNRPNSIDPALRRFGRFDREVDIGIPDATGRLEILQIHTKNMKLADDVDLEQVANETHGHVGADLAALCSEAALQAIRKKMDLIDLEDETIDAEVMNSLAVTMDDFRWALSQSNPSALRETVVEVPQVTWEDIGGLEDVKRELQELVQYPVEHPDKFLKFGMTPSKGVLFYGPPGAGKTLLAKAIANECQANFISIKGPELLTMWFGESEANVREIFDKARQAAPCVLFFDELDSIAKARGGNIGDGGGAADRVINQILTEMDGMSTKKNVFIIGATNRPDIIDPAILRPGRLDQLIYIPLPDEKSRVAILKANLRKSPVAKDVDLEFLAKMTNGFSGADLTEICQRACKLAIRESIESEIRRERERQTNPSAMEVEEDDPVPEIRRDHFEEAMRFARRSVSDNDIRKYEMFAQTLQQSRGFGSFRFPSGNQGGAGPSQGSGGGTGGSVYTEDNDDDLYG
Chain of Lysosomal acid glucosylceramidase (P04062 whole entry): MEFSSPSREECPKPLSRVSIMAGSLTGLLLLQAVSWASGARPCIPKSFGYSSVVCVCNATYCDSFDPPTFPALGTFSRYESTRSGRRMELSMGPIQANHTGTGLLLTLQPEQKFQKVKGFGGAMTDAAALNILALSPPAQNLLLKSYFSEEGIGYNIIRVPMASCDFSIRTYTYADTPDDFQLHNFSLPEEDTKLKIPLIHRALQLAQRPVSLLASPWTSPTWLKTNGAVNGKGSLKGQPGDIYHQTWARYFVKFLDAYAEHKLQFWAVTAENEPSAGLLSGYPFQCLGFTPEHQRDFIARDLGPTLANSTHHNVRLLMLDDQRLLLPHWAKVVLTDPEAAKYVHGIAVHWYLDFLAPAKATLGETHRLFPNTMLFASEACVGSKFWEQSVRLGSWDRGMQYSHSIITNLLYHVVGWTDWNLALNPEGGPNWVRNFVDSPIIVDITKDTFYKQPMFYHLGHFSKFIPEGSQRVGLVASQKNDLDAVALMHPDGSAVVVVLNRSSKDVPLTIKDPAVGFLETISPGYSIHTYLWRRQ
Chain of Protein-tyrosine kinase 2-beta (Q14289 whole entry): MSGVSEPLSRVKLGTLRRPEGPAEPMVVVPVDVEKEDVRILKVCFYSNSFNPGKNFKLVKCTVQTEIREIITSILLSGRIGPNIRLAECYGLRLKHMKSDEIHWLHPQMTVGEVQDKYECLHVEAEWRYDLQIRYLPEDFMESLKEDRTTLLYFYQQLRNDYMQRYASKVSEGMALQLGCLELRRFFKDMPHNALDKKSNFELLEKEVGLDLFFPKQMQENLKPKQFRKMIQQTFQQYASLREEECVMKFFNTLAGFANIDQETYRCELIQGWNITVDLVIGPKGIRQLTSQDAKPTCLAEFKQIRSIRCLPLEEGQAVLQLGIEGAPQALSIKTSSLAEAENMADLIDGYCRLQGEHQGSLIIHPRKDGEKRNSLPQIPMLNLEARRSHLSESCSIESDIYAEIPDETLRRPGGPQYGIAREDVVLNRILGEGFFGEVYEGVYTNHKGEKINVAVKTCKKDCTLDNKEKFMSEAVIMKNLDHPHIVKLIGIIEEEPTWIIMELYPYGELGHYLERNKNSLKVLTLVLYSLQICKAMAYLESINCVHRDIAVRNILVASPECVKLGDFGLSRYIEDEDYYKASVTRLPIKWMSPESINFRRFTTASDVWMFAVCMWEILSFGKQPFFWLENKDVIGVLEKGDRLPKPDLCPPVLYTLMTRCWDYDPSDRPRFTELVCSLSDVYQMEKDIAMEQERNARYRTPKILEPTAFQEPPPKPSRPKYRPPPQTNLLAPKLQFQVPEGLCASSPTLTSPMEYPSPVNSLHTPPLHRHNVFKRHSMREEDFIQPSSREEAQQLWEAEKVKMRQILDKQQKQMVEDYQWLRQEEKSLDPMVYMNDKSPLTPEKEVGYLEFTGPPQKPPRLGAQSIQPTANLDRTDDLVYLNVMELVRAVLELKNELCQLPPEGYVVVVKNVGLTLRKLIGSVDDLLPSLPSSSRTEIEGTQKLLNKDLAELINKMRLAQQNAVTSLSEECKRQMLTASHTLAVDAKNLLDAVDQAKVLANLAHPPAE
Chain of Luciferin 4-monooxygenase (P08659 whole entry): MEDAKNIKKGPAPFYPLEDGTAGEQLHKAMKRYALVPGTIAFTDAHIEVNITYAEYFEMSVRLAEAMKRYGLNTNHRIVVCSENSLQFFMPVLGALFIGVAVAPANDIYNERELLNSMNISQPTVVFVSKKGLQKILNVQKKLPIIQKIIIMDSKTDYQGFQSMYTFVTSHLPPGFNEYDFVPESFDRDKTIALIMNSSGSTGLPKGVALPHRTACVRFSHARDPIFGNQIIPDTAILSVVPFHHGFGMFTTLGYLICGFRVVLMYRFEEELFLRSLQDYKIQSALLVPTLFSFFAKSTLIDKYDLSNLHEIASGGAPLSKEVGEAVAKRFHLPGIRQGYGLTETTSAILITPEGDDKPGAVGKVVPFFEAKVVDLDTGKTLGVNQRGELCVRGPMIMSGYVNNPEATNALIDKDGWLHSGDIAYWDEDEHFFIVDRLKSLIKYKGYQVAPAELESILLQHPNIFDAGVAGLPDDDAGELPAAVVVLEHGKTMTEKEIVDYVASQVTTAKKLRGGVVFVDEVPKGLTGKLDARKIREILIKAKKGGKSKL

For `O=C1c2ccccc2C(=O)C1c1ccnc2ccccc12`, which EC50 [1] is on record?
The EC50 was 3.42 µM (active).

And the IC50 [2]?
The IC50 was 4.75 µM (active).

What about the EC50 (HT-1080) of the same compound?
Its EC50 is > 50 µM (not active).

And the IC50 [3]?
The IC50 was > 67.5 µM (inactive).

What about the EC50 [4] of the same compound?
Its EC50 is > 67.5 µM (inactive).

Which CC50 [5] does the source give for `CCOC(=O)C1=C(C)N=c2s/c(=C\c3ccncc3)c(=O)n2C1c1ccc2c(c1)OCO2` (configuration not stated) here?
Its CC50 is > 40 µM (active).

And the EC50 [6]?
Its EC50 is 16.3 µM (active).

What about the EC50 [7] of the same compound?
Its EC50 is 11 µM (active).

What about the EC50 [8] of the same compound?
The EC50 was 10.5 µM (active).

What about the EC50 [9] of the same compound?
The EC50 was 10.2 µM (active).

What about the IC50 (H9c2) of the same compound?
The IC50 was > 79 µM (inactive).

Which IC50 (Bcl-2-like protein 10) does the source give for `COc1ccc2c(c1)c(=O)oc1cc(OCC(=O)N3CCc4ccccc4C3)ccc12` here?
The IC50 was 29.8 µM (active).

What about the IC50 (Estrogen receptor beta [10]) of the same compound?
Its IC50 is > 50 µM (not active).

What about the IC50 (Estrogen receptor beta [11]) of the same compound?
The IC50 was 5.58 µM (active).

What about the IC50 [12] of the same compound?
The IC50 was 2.9 µM (active).

Which EC50 [13] does the source give for `COc1ccc(C(=O)/C=C/c2ccc(O)cc2)c(O)c1CC=C(C)C` here?
Its EC50 is 2.71 µM (active).

What about the CC50 [5] of the same compound?
Its CC50 is > 40 µM (active).

What about the EC50 (Streptococcus) of the same compound?
The EC50 was 3.01 µM (active).

With `CCOc1ccccc1CNS(=O)(=O)c1ccc2nc(O)sc2c1` as the compound, how does the EC50 [14] read?
Its EC50 is > 10 µM (not active).

Which EC50 [14] does the source give for `CCOC(=O)NC(CC(=O)O)c1ccc(OCC)cc1` (configuration not stated) here?
The EC50 was > 50 µM (not active).

For `O=C1c2cccc(OCC(=O)N3CCCc4ccccc43)c2CCN1Cc1ccccc1`, which EC50 [15] is on record?
Its EC50 is > 79.4 µM (not active).

What about the EC50 [16] of the same compound?
The EC50 was > 79.4 µM (not active).

And the EC50 [17]?
Its EC50 is > 79.4 µM (not active).

Which IC50 [18] does the source give for `CCOC(=O)/C(C#N)=C/c1sc2ccccc2c1-c1ccccc1` here?
Its IC50 is > 50 µM (not active).

What about the IC50 [19] of the same compound?
Its IC50 is > 50 µM (not active).

With `Cc1cc(-c2csc(Nc3ccc(C#N)cc3)n2)c(C)n1Cc1ccccc1` as the compound, how does the IC50 [18] read?
The IC50 was > 50 µM (not active).

What about the IC50 [19] of the same compound?
The IC50 was > 50 µM (not active).

— ChEMBL document CHEMBL1201862, “PubChem BioAssay data set” (2004)
